For test [1], the system named is Leishmania donovani. The experiment in a line: Effective dose required for antiprotozoal activity against Leishmania donovani. As to conditions: read-out: ED50. The class given is functional.
The next test deals with Trypanosoma brucei. The experiment in a line: Effective dose required for antiprotozoal activity against Trypanosoma brucei. As to conditions: read-out: ED50. The class given is functional.
In test [2] the test system is Trypanosoma cruzi. The experiment in a line: Effective dose required for antiprotozoal activity against Trypanosoma cruzi. It is filed as functional. Conditions: read-out: ED50.
Another test deals with Plasmodium falciparum. The experiment in a line: Effective dose for antimalarial activity against Plasmodium falciparum. The class given is functional. As to conditions: read-out: ED50.
The nature of test [3]: Cytotoxicity tested against KB cells of human nasopharyngeal epithelial cell line. The class given is functional. As to conditions: read-out: ED50 (the source's name).
Test [4] has as its system Leishmania donovani. The experiment in a line: Effective dose required for antiprotozoal activity against Leishmania donovani; T: Toxicity to both mouse macrophage host cells and intracellular parasites prevented determination of antiprotozoal activity. The class given is functional, organism-based.
For test [5], the system named is Trypanosoma cruzi. The experiment in a line: Effective dose required for antiprotozoal activity against Trypanosoma cruzi; T: Toxicity to both mouse macrophage host cells and intracellular parasites prevented determination of antiprotozoal activity. It is filed as functional, organism-based.

SMILES strings stand for the structures. In brackets after ≈: the same amount, converted by molar mass.

In the case of `CCC(=O)CCCCC[C@@H]1NC(=O)[C@H]2CCCN2C(=O)[C@H]([C@@H](C)CC)NC[C@H](Cc2c[nH]c3ccccc23)NC1=O`, the EC50 with Leishmania donovani [1] was greater than 30 µg/mL; in the test with Trypanosoma brucei it was 11.1 µg/mL (≈ 19.6 µM); with Trypanosoma cruzi [2], greater than 30 µg/mL; with Plasmodium falciparum, greater than 1 µg/mL.
Turning to `CCC(=O)CCCCC[C@@H]1NC(=O)[C@H]2CCCCN2C(=O)[C@H]([C@@H](C)CC)NC(=O)[C@H](Cc2cn(OC)c3ccccc23)NC1=O` [APICIDIN], the EC50 in test [3] was 200 µg/mL (≈ 321 µM); with Trypanosoma brucei, 1.9 µg/mL (≈ 3.05 µM); with Plasmodium falciparum, 0.22 µg/mL (≈ 0.353 µM). Further, the ED50 entry with Leishmania donovani [4] and with Trypanosoma cruzi [5] was “Toxic” throughout.
Take `CCC(=O)CCCCC[C@@H]1NC(=O)[C@H]2CCCN2C(=O)[C@H]([C@@H](C)CC)N(C(C)=O)C[C@H](Cc2c[nH]c3ccccc23)NC1=O`: the EC50 with Leishmania donovani [1] was greater than 30 µg/mL; in the test on Trypanosoma brucei, 13 µg/mL (≈ 21.3 µM); in the test with Trypanosoma cruzi [2], greater than 30 µg/mL; in the test with Plasmodium falciparum, greater than 1 µg/mL.

These data come from ChEMBL document CHEMBL1134828, “The synthesis of cyclic tetrapeptoid analogues of the antiprotozoal natural product apicidin” (2001).
